Reference: patent publication US9353084B2, “2-amino 3,5,5-trifluoro-3,4,5,6-tetrahydropyridines as BACE1 inhibitors for treatment of Alzheimer's disease” (H. Lundbeck A/S, priority 2014, dated 2016)
Counter-ions that a name gives are not always drawn. Like-named read-outs stand apart in the source and are kept apart here.

Tests used:
[1] = Brain and plasma exposure in rats after oral dosing (DMPK analysis); assay type: in vivo; settings: male, Sprague Dawley, 3 hours post dose, rat, read-out: Brain/Plasma ratio
Protocol: (§1) Young adult Male Sprague Dawley rats of approximately 250 g weight were purchased from Charles River and received 0-30 mg/kg of vehicle (10% HP betaCD+1M MeSO4, pH 2.5) or test compounds (dissolved in vehicle) only by oral gavage (p.o). The compounds are dosed at a volume of 5 ml/kg. Cohorts of 5-10 animals were established for each treatment condition.
(§2) At T=180 minutes after initial dosing the animals were stunned and decapitated with a guillotine. Trunk-blood was sampled in EDTA coated tubes after decapitation of the animal. The blood was centrifuged at 2200 G at 4° C. for 15 minutes and the plasma was collected and frozen at −80° C. The blood was aliquoted for Aβ ELISA and DMPK analysis Immediately following sacrifice, the brain was extracted and split into 2 halves. The right hemibrains were snap frozen on dry ice and stored at −80° C. The left half was dissected; with the front forebrain taken for Aβ ELISA and the remainder used for DMPK analysis. These samples were also snap frozen on dry ice and stored at −80° C. until use for analysis.
Compounds 1, 5, 17, 18, and 24 were administered at doses of 10 or 30 mg/kg p.o. and brain and plasma samples were collected at 3 hours post dose and the following exposures and reductions in Aβ40 levels were measured as described above.

human BACE1 = human BACE1 (Homo sapiens (Human), UniProt P56817); assay: BACE1 binding assay (SPA-based, radioligand displacement); settings: pH 4.5, Ki calculated from IC50
Sequence of human BACE1 (P56817 46-501): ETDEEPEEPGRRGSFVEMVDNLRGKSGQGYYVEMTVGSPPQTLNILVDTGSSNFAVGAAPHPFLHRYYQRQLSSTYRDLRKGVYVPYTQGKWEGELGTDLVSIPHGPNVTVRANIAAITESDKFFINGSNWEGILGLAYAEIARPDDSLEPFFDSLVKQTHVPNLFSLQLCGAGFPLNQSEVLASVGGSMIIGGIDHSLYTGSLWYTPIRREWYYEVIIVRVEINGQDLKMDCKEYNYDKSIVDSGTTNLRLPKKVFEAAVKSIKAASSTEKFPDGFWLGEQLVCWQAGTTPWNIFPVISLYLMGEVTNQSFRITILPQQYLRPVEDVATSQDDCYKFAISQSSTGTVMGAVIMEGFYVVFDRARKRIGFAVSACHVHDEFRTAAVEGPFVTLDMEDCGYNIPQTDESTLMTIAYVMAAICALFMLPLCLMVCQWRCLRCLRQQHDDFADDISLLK
Protocol: The binding assay was performed as SPA-based assay using a biotinylated form of human BACE1 recombinantly expressed and subsequently purified from Freestyle HEK293 cells. The binding assay was run in a 50 mM sodium acetate buffer, pH 4.5 containing 50 mM NaCl and 0.03% Tween-20 in white clear bottom 384 plates (Corning #3653). 10 nM (final concentration) radioligand ([^3H]—N-((1S,2R)-1-benzyl-3-cyclopropylamino-2-hydroxy-propyl)-5-(methanesulfonyl-methyl-amino)-N—((R)-1-phenyl-ethyl)-isophthalamide) (TRQ11569 purchased from GE Healthcare) was mixed with test compound at a given concentration, 6 nM (final concentration) human BACE1 and 25 μg Streptavidin coated PVT core SPA beads (RPNQ0007, GE Healthcare Life Sciences) in a total volume of 40 μl. Several concentrations of each test compound were tested in the assay for IC50 determination. The plates were incubated for one hour at room temperature and counted in a Wallac Trilux counter. Total and non-specific binding were determined using buffer and 1 μM (final concentration) of the high affinity BACE1 reference inhibitor (S)-6-[3-chloro-5-(5-prop-1-ynyl-pyridin-3-yl)-thiophen-2-yl]-2-imino-3,6-dimethyl-tetrahydro-pyrimidin-4-one, respectively. For each test compound, a IC50 value (the concentration mediating 50% inhibition of the specific binding of the radioligand) was determined from concentration-response curve and used to calculate the Ki from the equation Ki=IC50/(1+L/Kd), where L and Kd are the final concentration of the radioligand used in the assay and the dissociation constant of the radioligand, respectively. The Kd of the radioligand was determined from saturation binding experiments.

Aβ40 = assay: Assessment of Aβ40 levels in rat brain and plasma following BACE1 inhibition (ELISA); assay type: in vivo; settings: 3 hours post dose, vs vehicle
Protocol: as §1, §2
The cortex samples were thawed slightly on wet ice before they were homogenized with a small volume dispersing instrument (T10 basic ULTRA-TURRAX®) which was set at speed 5 for approximately 5-7 sec. The tissue was processed in a 10 times volume of the weight, for example 100 mg of tissue was homogenized in 1000 μL of Homogenization buffer. Homogenization buffer: 50 ml Milli Q water+[…]+0.2% Diethylamin (DEA)+1 tablet of Complete Protease inhibitor cocktail+1 nM 4-(2-aminoethyl)benzenesulfonyl fluoride hydrochloride irreversible serine protease inhibitor (AEBSF).
After homogenization 450 μL aliquots of the samples are collected into a 1.5 ml Eppendorf tube and placed on wet ice, 0.5% NP-40 (50 ul) was added to all samples and then they were incubated on ice for 30 min. After which all samples were sonicated using an Ultrasonic homogenizer with 20 kHz homogeneous sound (SONOPLUS HD2070, Bandelin Electronic) 10 pulse set at 12-13% power to extract all the Aβ species. The samples were then centrifuged (Ole Dich 157 MPRF Micro centrifuge) at 20000 G for 20 minutes at 4° C. After centrifugation 285 μL of the supernatant was pipetted into 600 μL microtubes tubes and neutralized with 15 μL of 1M Tris-HCL buffer.
WAKO 294-62501 Human/Rat Abeta amyloid (40) kit was used for all ELISA analyses. 30 μL plasma samples or 30 μL of the cortex supernatants generated as described above were placed in 600 μL microtubes tubes on wet ice. To this 30 μL of 8M Urea (AppliChem A1049, 9025) are added to generate a 2-fold dilution. Both plasma and cortex supernatants are incubated on ice for 30 min. Standard rows were prepared from the standard peptide stock provided in the kit and standard diluent containing 1.6M Urea (200 μL 8M Urea+800 μL of standard diluent) and 0.8M Urea (400 μL 8M Urea+3600 μL Standard diluent). A serial 2-fold dilution of Aβ40 from 100 pmol/ml to 0 pmol/L was prepared for the assay.
After incubation with urea, all samples were further diluted by addition of 5 times standard diluent from the Kit. This was done by adding 240 μL Standard Diluent to 60 μL sample/urea mixture, which was then mixed well. 100 μL of each diluted sample was pipetted into designated wells of the ELISA plate in duplicates. The plate was then covered and incubated overnight at 4° C. The following day, the ELISA kit was brought to room temperature before use. The incubated plate was washed 5 times with the 20× washing solution diluted in Milli Q water. 100 μL HRP-conjugate was applied to each well, and the plate was covered and incubates at 4° C. for 1 hr. The wash was repeated again for 5 times. 100 μL 3,3′,5,5′-Tetramethylbenzidine (TMB) solution was applied to each well and the plate was covered and incubated in the dark at room temperature for 30 minutes. […]

SMILES | Ki (human BACE1) | also measured
C[C@]1(F)CC(F)(F)[C@@](C)(c2cc(NC(=O)c3ccc(F)cn3)ccc2F)N=C1N [Compound 1, N-(3-((2R,5S)-6-amino-3,3,5-trifluoro-2,5-dimethyl-2,3,4,5-tetrahydropyridin-2-yl)-4-fluorophenyl)-5-fluoropicolinamide] | 83 nM | Kp at 3 h ([1]; 30 mg/kg p.o.): 0.62; Aβ40 reduction, Brain Rat (Aβ40; 30 mg/kg p.o.): 56%; Aβ40 reduction, Plasma Rat (Aβ40; 30 mg/kg p.o.): 41%
COc1cnc(C(=O)Nc2ccc(F)c([C@@]3(C)N=C(N)[C@@](C)(F)CC3(F)F)c2)cn1 [Compound 5, N-(3-((2R,5S)-6-amino-3,3,5-trifluoro-2,5-dimethyl-2,3,4,5-tetrahydropyridin-2-yl)-4-fluorophenyl)-5-methoxypyrazine-2-carboxamide] | 18 nM | Kp at 3 h ([1]; 10 mg/kg p.o.): 1.3; Kp at 3 h ([1]; 30 mg/kg p.o.): 1.5; Aβ40 reduction, Brain Rat (Aβ40; 10 mg/kg p.o.): 34%; Aβ40 reduction, Plasma Rat (Aβ40; 10 mg/kg p.o.): 34%; Aβ40 reduction, Brain Rat (Aβ40; 30 mg/kg p.o.): 61%; Aβ40 reduction, Plasma Rat (Aβ40; 30 mg/kg p.o.): 39%
Cc1nc(C(=O)Nc2ccc(F)c([C@@]3(C)N=C(N)[C@](C)(F)CC3(F)F)c2)no1 [Compound 35, N-(3-((2R,5R)-6-amino-3,3,5-trifluoro-2,5-dimethyl-2,3,4,5-tetrahydropyridin-2-yl)-4-fluorophenyl)-5-methyl-1,2,4-oxadiazole-3-carboxamide] | 680 nM | 
C[C@@]1(F)CC(F)(F)[C@@](C)(c2cc(NC(=O)c3nccs3)ccc2F)N=C1N [Compound 36, N-(3-((2R,5R)-6-amino-3,3,5-trifluoro-2,5-dimethyl-2,3,4,5-tetrahydropyridin-2-yl)-4-fluorophenyl)thiazole-2-carboxamide] | 390 nM | 
Cn1cc(Br)nc1C(=O)Nc1ccc(F)c([C@@]2(C)N=C(N)[C@](C)(F)CC2(F)F)c1 [Compound 37, N-(3-((2R,5R)-6-amino-3,3,5-trifluoro-2,5-dimethyl-2,3,4,5-tetrahydropyridin-2-yl)-4-fluorophenyl)-4-bromo-1-methyl-1H-imidazole-2-carboxamide] | 420 nM | 
Cc1cn(C)c(C(=O)Nc2ccc(F)c([C@@]3(C)N=C(N)[C@](C)(F)CC3(F)F)c2)n1 [Compound 38, N-(3-((2R,5R)-6-amino-3,3,5-trifluoro-2,5-dimethyl-2,3,4,5-tetrahydropyridin-2-yl)-4-fluorophenyl)-1,4-dimethyl-1H-imidazole-2-carboxamide] | 1000 nM | 
Cn1ccc(C(=O)Nc2ccc(F)c([C@@]3(C)N=C(N)[C@](C)(F)CC3(F)F)c2)n1 [Compound 39, N-(3-((2R,5R)-6-amino-3,3,5-trifluoro-2,5-dimethyl-2,3,4,5-tetrahydropyridin-2-yl)-4-fluorophenyl)-1-methyl-1H-pyrazole-3-carboxamide] | 4800 nM | 
Cc1cc(C(=O)Nc2ccc(F)c([C@@]3(C)N=C(N)[C@](C)(F)CC3(F)F)c2)on1 [Compound 40, N-(3-((2R,5R)-6-amino-3,3,5-trifluoro-2,5-dimethyl-2,3,4,5-tetrahydropyridin-2-yl)-4-fluorophenyl)-3-methylisoxazole-5-carboxamide] | 8200 nM | 
Cc1ccc(C(=O)Nc2ccc(F)c([C@@]3(C)N=C(N)[C@](C)(F)CC3(F)F)c2)o1 [Compound 41, N-(3-((2R,5R)-6-amino-3,3,5-trifluoro-2,5-dimethyl-2,3,4,5-tetrahydropyridin-2-yl)-4-fluorophenyl)-5-methylfuran-2-carboxamide] | 520 nM | 
Cc1ncc(C(=O)Nc2ccc(F)c([C@@]3(C)N=C(N)[C@](C)(F)CC3(F)F)c2)o1 [Compound 42, N-(3-((2R,5R)-6-amino-3,3,5-trifluoro-2,5-dimethyl-2,3,4,5-tetrahydropyridin-2-yl)-4-fluorophenyl)-2-methyloxazole-5-carboxamide trifluoroacetic acid salt] | 1500 nM | 
[2H]C([2H])([2H])Oc1ccc(C(=O)Nc2ccc(F)c([C@@]3(C)N=C(N)[C@](C)(F)CC3(F)F)c2)nc1 [Compound 43, N-(3-((2R,5R)-6-amino-3,3,5-trifluoro-2,5-dimethyl-2,3,4,5-tetrahydropyridin-2-yl)-4-fluorophenyl)-5-(methoxy-d3)picolinamide] | 91 nM | 
C[C@@]1(F)CC(F)(F)[C@@](C)(c2cc(NC(=O)c3ccc(Cl)cc3)ccc2F)N=C1N [Compound 44, N-(3-((2R,5R)-6-amino-3,3,5-trifluoro-2,5-dimethyl-2,3,4,5-tetrahydropyridin-2-yl)-4-fluorophenyl)-4-chlorobenzamide] | 740 nM | 
C[C@]1(F)CC(F)(F)[C@@](C)(c2cc(NC(=O)c3ccc(OC(F)F)cn3)ccc2F)N=C1N [Compound 45, N-(3-((2R,5S)-6-amino-3,3,5-trifluoro-2,5-dimethyl-2,3,4,5-tetrahydropyridin-2-yl)-4-fluorophenyl)-5-(difluoromethoxy)picolinamide] | 14 nM | 
COc1cnc(C(=O)Nc2ccc(F)c([C@@]3(C)N=C(N)[C@@](C)(F)CC3(F)F)c2)c(F)c1 [Compound 46, N-(3-((2R,5S)-6-amino-3,3,5-trifluoro-2,5-dimethyl-2,3,4,5-tetrahydropyridin-2-yl)-4-fluorophenyl)-3-fluoro-5-methoxypicolinamide] | 14 nM | 
Cc1nc(C(=O)Nc2ccc(F)c([C@@]3(C)N=C(N)[C@@](C)(F)CC3(F)F)c2)c(C)o1 [Compound 47, N-(3-((2R,5S)-6-amino-3,3,5-trifluoro-2,5-dimethyl-2,3,4,5-tetrahydropyridin-2-yl)-4 fluorophenyl)-2,5-dimethyloxazole-4-carboxamide] | 65 nM | 
[2H]C([2H])([2H])Oc1ccc(C(=O)Nc2ccc(F)c([C@@]3(C)N=C(N)[C@@](C)(F)CC3(F)F)c2)nc1 [Compound 48] | 14 nM | 
Cc1cc(F)cnc1C(=O)Nc1ccc(F)c([C@@]2(C)N=C(N)[C@@](C)(F)CC2(F)F)c1 [Compound 49, N-(3-((2R,5S)-6-amino-3,3,5-trifluoro-2,5-dimethyl-2,3,4,5-tetrahydropyridin-2-yl)-4-fluorophenyl)-5-fluoro-3-methylpicolinamide] | 60 nM | 
